Test results from the METLIN SMRT retention time set (Domingo-Almenara et al. 2019).

Test: gradient 5% acetonitrile 3 min, to 50% in 2 min, to 85% in 15 min, held 3 min, 100 µL/min
Conditions: column: Zorbax Extend-C18 2.1 x 50 mm; eluents: water / acetonitrile, 0.1% formic acid
Outline: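 Mixtures of ~100 pure standards were chromatographed on a Zorbax Extend-C18 column (2.1 × 50 mm, 1.8 μm) at 100 μL/min using water and acetonitrile, each with 0.1% formic acid. Detection used a quadrupole time-of-flight mass spectrometer in positive and negative ionization mode, and data collection spanned 3 months. Retention time was obtained from adduct peaks picked computationally and each checked manually.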

Structure (SMILES) | RP-LC retention time [s]
COc1ccc(Cl)cc1C(=O)NCCCOc1cccc2cccnc12 | 611
COC(=O)c1nnn(-c2cc(Cl)ccc2OC)c1C(=O)OC | 898
CCc1nc2cc(-c3noc(-c4cc(OC)cc(OC)c4)n3)ccc2o1 | 1210
CCC(C)NC(=O)N1CCc2c(c(-c3nc(C)no3)nn2C)C1 (stereo not given) | 673
COc1ccc2c(c1)C1(CCN(S(=O)(=O)c3cc(F)ccc3C)C1)C(=O)N2 (stereo not given) | 857
O=C(O)[C@H](CC(=O)N1C[C@H]2CCCC[C@H]2C1)Cc1ccccc1 | 915
Fc1ccc(-c2ccc(CNCCCn3ccnc3)o2)cc1Cl | 585
CC(C)NC(=O)N(C)CCc1noc(COc2ccc(Cl)cc2)n1 | 841
Cc1nn(C)cc1CN(C)C(=O)CCC1CCCN(c2cc(NC3CC3)ncn2)C1 (stereo not given) | 597
O=C(c1ccco1)N1CCc2c(c(CO)nn2Cc2ccccc2)C1 | 657
Cc1ccc(-c2cc3c(=O)n(Cc4noc(CN5CCSCC5)n4)ccn3n2)c(C)c1 | 962
C[C@H]1CN(C(=O)Nc2ccc(Cl)cc2)C[C@@H]1c1nc(-c2ccncc2)no1 | 821
COC(=O)c1cc(C)nc2c1c(=O)n(Cc1ccc(OC)cc1)c(=O)n2C | 953
Cn1cnc2cc(OC(=O)c3c(F)cccc3F)ccc21 | 590
O=C(Nc1nc(-c2ccncc2)cs1)c1ccc(NS(=O)(=O)c2ccccc2)cc1 | 589
COc1ccc(Cl)cc1NC(=O)C(=O)NCC1(O)CCOCC1 | 706
Cn1nc(-c2nnc(-c3ccccc3Cl)o2)c2c1CCN(C(=O)c1ccc(F)c(F)c1)C2 | 877
O=S(=O)(Cc1ccccc1Cl)N(CCc1ccccc1)Cc1ccccn1 | 950
COc1ccc(-c2nc(C3CC(=O)N(c4ccc(F)cc4)C3)no2)cc1OC (stereo not given) | 884
COc1ccc(CNC(=O)c2cn3cccc(C)c3n2)cc1OC | 604
COc1cccc(C(=O)NC2(C(F)(F)F)C(=O)N(CC(C)C)C3=C2C(=O)CC(C)(C)C3)c1 (stereo not given) | 1040
Cc1ccc2nc(C(=O)NCc3ccc(N(C)C)cc3)cn2c1 | 565
O=C(NC1CCCCCC1)c1cc(C2CC2)[nH]n1 | 792
Cc1nn(C)cc1C(=O)NC1CCN(c2ccc(=O)n(C)n2)C1 (stereo not given) | 562
O=C(C1CCN(c2cc(N3CCCCC3)ncn2)CC1)N1CCSCC1 | 628
COc1cc([C@@H]2c3cc4c(cc3[C@H](O)[C@@H](CO)[C@@H]2C(=O)NCc2ccc3c(c2)OCO3)OCO4)cc(OC)c1OC | 709
CN(C)C(=O)c1ccc2c(c1)n(Cc1ccccc1)c(=O)c1ccnn12 | 768
COCCn1c(C)cc(O)c(C(c2ccc(OC)cc2OC)N2CCCCC2)c1=O (stereo not given) | 688

Further lines, results first:

RP-LC retention time [s] | Structure (SMILES)
674 | O=C(Cc1ccsc1)N1CCc2nn(CC3CC3)c(=O)n2CC1
889 | CCOc1ccc(-c2noc(N3CCC(C(=O)N4CCCCC4)CC3)n2)cc1OC
862 | COc1ccc(C)cc1NC(=O)Cn1nc2nc(Nc3ccc(C)cc3)ccn2c1=O
838 | CCn1cc(S(=O)(=O)Nc2ccc(C)cc2)c2cccnc21
1010 | CCn1c(=O)sc2cc(S(=O)(=O)N3CCC(C(=O)Nc4ccc(F)c(Cl)c4)CC3)ccc21
796 | CC(C)n1c(-c2cccc(C(=O)NC3CCCC3)c2)nc2cccnc21
603 | CC(C)(C)C(=O)Nc1ccc2nc(N3CCN(CC(=O)N4CCCCCC4)CC3)cc(C(=O)O)c2c1
796 | O=C(NC1CCCCC1)c1ccc2c(c1)nc1n2CCN(C2CCCCC2)C1=O
1130 | COC(=O)c1cc(C2CC2)nc2c1c(=O)n(Cc1ccccc1Cl)c(=O)n2C
1010 | Cc1cccc(NC(=O)CN2C(=O)CCCc3cc(S(=O)(=O)N4CCC(C)CC4)ccc32)c1
760 | O=C(NCc1ccccc1)C1CCN(C(=O)c2ncn3c2COC(c2ccc(Cl)cc2)C3)CC1 (stereo not given)
704 | Cc1ccc(Nc2nc(C)cc(N3CCN(C(=O)Nc4ccccc4C)CC3)n2)cc1
617 | COc1ccc(N2CCN(C(=O)c3cn(-c4ccc(NC(C)=O)cn4)cn3)CC2)cc1
871 | O=C(CN1C(=O)CC(c2ccccc2)S(=O)(=O)c2ccccc21)Nc1ccccc1F (stereo not given)
642 | COc1cc(CCC(=O)Nc2c(C(=O)N3CCN(c4ccccn4)CC3)oc3ccccc23)on1
733 | Cc1cc2c(cc1NC(=O)C1CCC(C)CC1)n(C)c(=O)c(=O)n2C (stereo not given)
824 | N#Cc1ccc(N2C=C(C(=O)N3CCCCC3)S(=O)(=O)c3ccc(F)cc32)cc1
957 | CC(C)c1ccc(NC(=O)C2CCCN(c3nc4ccccc4nc3C(F)(F)F)C2)cc1 (stereo not given)
621 | Cn1cc(-c2cc3n(n2)CCCN3C(=O)CCC(=O)N2CCN(c3ccccn3)CC2)c2ccccc21

RP-LC retention time [s] | Structure (SMILES)
809 | CCCS(=O)(=O)c1ccc(N2CCN(c3ccccc3OC)CC2)nn1
638 | CSc1ccc(CNC(=O)CN2CCc3[nH]c4c(C)cc(F)cc4c(=O)c3C2)cc1
657 | O=C(CCC1CCCN(S(=O)(=O)c2ccccc2)C1)N1CCN(c2ccccn2)CC1 (stereo not given)
989 | Cc1cc(NC(=O)C2CCCN(c3nccnc3Oc3ccccc3)C2)ccc1Br (stereo not given)
967 | COc1ccc(-c2nnc(-c3cc(S(=O)(=O)NC(C)C)ccc3Cl)o2)cc1
772 | O=C(Cc1ccc(Cl)cc1)Nc1nnc(C2CC(=O)N(c3ccc(F)cc3)C2)o1 (stereo not given)
904 | Cc1ccc(-n2c(=O)n(C)c(=O)c3cc(C(=O)Nc4ccc(F)cc4)cnc32)cc1
960 | CSc1ccc(CNC(=O)C2CCN(c3c(C#N)cnc4ccc(Cl)cc34)CC2)cc1
670 | CCC(C(=O)NC(C)C(=O)N1CCCCC1)n1c2ccccc2c2cnn(C)c(=O)c21 (stereo not given)
933 | COc1ccc(C)cc1NS(=O)(=O)c1ccc2c(c1)C(=O)N(C)c1ncccc1O2
963 | CC1CC(C)CN(C(=O)C2CCCN(C(=O)c3cc4sccc4n3C)C2)C1 (stereo not given)
898 | COc1ccccc1NC(=O)N1CCC(n2c(C(F)(F)F)nc3cccnc32)CC1
655 | Cc1nc(CNC(=O)C2CCN(C(=O)Nc3ccccc3Br)CC2)cs1
615 | CSc1ccccc1NC(=O)C(=O)NCC1CCN(Cc2cc(C)oc2C)CC1
754 | COC(=O)N1CCc2ccc(F)cc2C1C(=O)Nc1cccc2nsnc12 (stereo not given)
859 | CCN1C(=O)C(C)(C(=O)Nc2ccccc2)Oc2cccnc21 (stereo not given)
895 | O=C(Cn1c(=O)n(C2CCCCC2)c2ncccc21)NCc1ccccc1
674 | COc1cccc(NS(=O)(=O)c2cc3n(c2)CCN(C)C3=O)c1
